Measured values: ChEMBL document CHEMBL1150243, “Lignan glycosides from Neoalsomitra integrifoliola” (2008)

Assay: Antiinflammatory activity against rat polymorphonuclear leucocytes assessed as inhibition of platelet activating factor-induced beta-glucuronidase release
Format: functional

SMILES: C[C@@H]1C(=O)O[C@H]2[C@H](O)[C@@]34[C@H]5C[C@@H](C(C)(C)C)[C@]36[C@@H](OC(=O)[C@@H]6O)O[C@@]4(C(=O)O5)[C@@]12O [GINKOLIDE B]
- inhibition (INH): 78.4%
